Values of other authors in patent US20250347706A1, “DISPOSABLE CARTRIDGE FOR CLASSIFICATION OF ANTICOAGULANT AND METHOD OF USE” (Haemonetics Corporation, priority 2023, published 2025).

Conditions: for half-life compared with dabigatran: in vivo

| half-life (lengthened in patients with renal dysfunction, Pradaxa product information) [h] | half-life compared with dabigatran | increased half-life (patients with severe renal impairment compared to healthy volunteers (Dager et al.)) | Molecule |
| --- | --- | --- | --- |
| 12 to 17 | – | – | dabigatran |
| – | shorter half-lives than dabigatran | – | O=C(NC[C@H]1CN(c2ccc(N3CCOCC3=O)cc2)C(=O)O1)c1ccc(Cl)s1 [rivaroxaban] |
| – | shorter half-lives than dabigatran | up to 44% | COc1ccc(-n2nc(C(N)=O)c3c2C(=O)N(c2ccc(N4CCCCC4=O)cc2)CC3)cc1 [apixaban] |
